Measured values taken from ChEMBL document CHEMBL4765432, “Design and synthesis of novel Flavone-based histone deacetylase inhibitors antagonizing activation of STAT3 in breast cancer” (Eur J Med Chem, 2020).
Activity calls are given as the source filed them. The rule behind the calls is not given here.

Legend:
MDA-MB-231 [1] = experiment: Induction of apoptosis in human MDA-MB-231 cells assessed as late apoptotic cells at 5 uM incubated for 72 hrs by annexinV-FITC and PI staining based flow cytometry analysis (reference value: 3.79 %); format: functional
MDA-MB-231 [2] = experiment: Induction of cell cycle arrest in human MDA-MB-231 cells assessed as S phase accumulation at 2 uM incubated for 24 hrs by PI staining based flow cytometry analysis (reference value: 43.82 %); format: functional
4T1 = experiment: Induction of cell cycle arrest in mouse 4T1 cells assessed as increase in p21 expression at 0.25 to 5 uM incubated for 24 hrs by Western blot analysis; format: functional, cell-based; details: dose 0.25-5 µM
Histone deacetylase 3 = Histone deacetylase 3 (Homo sapiens, UniProt O15379); experiment: Inhibition of recombinant human C-terminal GST-tagged full length HDAC-3 expressed in baculovirus infected in Sf9 cells using Boc-Lys (q-Ac)-AMC as substrate incubated for 10 mins followed by substrate addition and measured after 30 mins by fluorescence based assay
NCI-H1581 = experiment: Cytotoxicity against human NCI-1581 cells assessed as reduction in cell viability incubated for 48 hrs by MTT assay; format: functional, cell-based; details: NCI-H1581, 48 h
[3] = Toxicity in BALB/c mouse xenografted with human MDA-MB-231 cells assessed as effect on body weight at 25 mg/kg, ip administered for 34 days and measured on day 34; format: organism-based; details: in vivo, 816 h, time 34 day
MDA-MB-231 [4] = experiment: Induction of apoptosis in human MDA-MB-231 cells assessed as necrotic cells at 1 uM incubated for 72 hrs by annexinV-FITC and PI staining based flow cytometry analysis (reference value: 0.330 %); format: functional
[5] = target: Signal transducer and activator of transcription 3 (Homo sapiens) (UniProt P40763); experiment: Inhibition of STAT3 in human MDA-MB-231 cells assessed as reduction in STAT-3 phosphorylation incubated for 8 hrs by Western blot analysis; format: cell-based; details: dose 2.5-20 µM
MDA-MB-231 [6] = experiment: Induction of apoptosis in human MDA-MB-231 cells xenografted in BALB/c mouse assessed as increase in caspase-3 cleavage by immunohistochemistry method; format: functional, cell-based
MDA-MB-231 [7] = experiment: Induction of apoptosis in human MDA-MB-231 cells assessed as early apoptotic cells at 2.5 uM incubated for 72 hrs by annexinV-FITC and PI staining based flow cytometry analysis (reference value: 5.57 %); format: functional
[8] = AUC (0 to infinity) in Sprague-Dawley rat at 20 mg/kg, po measured upto 12 hrs by LC-MS/MS analysis; format: ADME, organism-based; design: route oral, dose 20 mg/kg, time <=12; details: in vivo

Chain of Histone deacetylase 3 (O15379 whole entry): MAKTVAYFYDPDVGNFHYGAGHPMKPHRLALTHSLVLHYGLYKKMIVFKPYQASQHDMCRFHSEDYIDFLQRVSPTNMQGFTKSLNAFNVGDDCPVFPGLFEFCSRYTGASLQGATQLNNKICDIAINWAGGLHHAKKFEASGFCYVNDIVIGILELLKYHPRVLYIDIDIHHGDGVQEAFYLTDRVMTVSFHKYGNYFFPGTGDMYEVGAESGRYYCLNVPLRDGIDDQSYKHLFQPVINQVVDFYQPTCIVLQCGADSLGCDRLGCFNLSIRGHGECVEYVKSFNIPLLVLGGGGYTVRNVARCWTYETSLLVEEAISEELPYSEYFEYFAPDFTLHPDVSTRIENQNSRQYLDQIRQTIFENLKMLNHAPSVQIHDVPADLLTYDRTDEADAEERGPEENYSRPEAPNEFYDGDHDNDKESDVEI
Chain of Signal transducer and activator of transcription 3 (Homo sapiens) (P40763 whole entry): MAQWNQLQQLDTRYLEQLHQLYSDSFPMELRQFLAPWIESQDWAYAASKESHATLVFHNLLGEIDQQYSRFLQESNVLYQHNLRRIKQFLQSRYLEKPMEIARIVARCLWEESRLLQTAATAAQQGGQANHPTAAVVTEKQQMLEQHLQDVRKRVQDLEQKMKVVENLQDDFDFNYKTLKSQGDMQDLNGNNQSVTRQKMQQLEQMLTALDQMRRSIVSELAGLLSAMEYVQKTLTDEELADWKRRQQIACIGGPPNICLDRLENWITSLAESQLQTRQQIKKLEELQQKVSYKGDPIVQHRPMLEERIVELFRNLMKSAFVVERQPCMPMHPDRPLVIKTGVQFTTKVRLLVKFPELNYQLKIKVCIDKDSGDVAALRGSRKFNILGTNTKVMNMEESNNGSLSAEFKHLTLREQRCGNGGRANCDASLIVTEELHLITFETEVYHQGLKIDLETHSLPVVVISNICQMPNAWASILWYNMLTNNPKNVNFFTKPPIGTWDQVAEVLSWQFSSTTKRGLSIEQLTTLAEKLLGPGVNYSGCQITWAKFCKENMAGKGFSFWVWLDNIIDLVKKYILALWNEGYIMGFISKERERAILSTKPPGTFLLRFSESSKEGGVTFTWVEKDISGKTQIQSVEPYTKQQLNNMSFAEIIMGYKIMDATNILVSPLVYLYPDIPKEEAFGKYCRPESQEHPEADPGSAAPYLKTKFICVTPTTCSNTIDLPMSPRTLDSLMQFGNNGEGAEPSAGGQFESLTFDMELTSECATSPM

In the case of `CN(C)CCOc1ccc(-c2cc(=O)c3c(O)cc(OCCCCCC(=O)NO)cc3o2)cc1.Cl`, the Activity (MDA-MB-231 [1]) is reported as 27.2%, the Activity (MDA-MB-231 [2]) is reported as 10.21% and the Activity (4T1) is reported as “Active”. The IC50 (Histone deacetylase 3) was 79.2 nM, the IC50 (NCI-H1581) was 2320 nM and the Activity [3] was “Non-Toxic”. For the same molecule, the Activity (MDA-MB-231 [4]) was 0.13%, the inhibition [5] was “Dose-dependent effect” and the Activity (MDA-MB-231 [6]) was “Active”. It also gave an Activity (MDA-MB-231 [7]) of 50.1% and an AUC(0-inf) [8] of 1640 ng·h/mL.
